“And” between values parts separate entries of the source, which are not always exact repeats. Equal values may be shown once.
Key:
HEK293T cells [1] = experiment: Cytotoxicity: metabolic activity (WST-8 / CCK-8 assay); settings: 1 µM; HEK293T, 24 h; WST-8; normalized to 0.1% DMSO; single replicates
BRD4 = molecular target: T1, BRD4 (Homo sapiens, UniProt O60885); experiment: Liability panel screening by DSF: BRD4; type: binding; settings: DSF, 20 µM, n=2; read-out: Mean ΔTM BRD4
T1 construct: This panel comprised ten highly ligandable kinases and bromodomains; made in house
Outline: (§1)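 Recombinant protein at 2 µM in 10 mM HEPES pH 7.5 with 500 mM NaCl was mixed with SYPRO Orange (1:1000) and heated at 3 °C/min up to 85 °C. Tm was taken as the Boltzmann-fit inflection point. Shifts are ∆Tm in K from technical duplicates.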

HEK293T cells [2] = experiment: Cytotoxicity: apoptosis induction (caspase-3/7 DEVD fluorogenic DNA dye); settings: 1 µM; HEK293T, 24 h; apoptotic cell count normalized to 0.1% DMSO; single replicates
HEK293T cells [3] = experiment: Cytotoxicity: necrosis induction (red fluorescent dye for permeable plasma membranes); type: cell-based; settings: 1 µM, 24 h, necrotic cell count normalized to 0.1% DMSO, single replicates;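 further: compounds applied in DMEM high glucose with 0.1% FCS and 0.1% DMSO, necrotic HEK293T cells counted by red staining of cells whose plasma membranes had become permeable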
[4] = tested on: ATF6 activity in Hela ATF6 reporter cells; experiment: Endoplasmic reticulum stress assay (ATF6 Renilla luciferase reporter, tunicamycin); type: cell-based; settings: Homo sapiens, HeLa, 1 µM, single replicates n=1 to n=5; read-out: ER stress [rel. ATF6 activity]
Outline: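 ER stress was induced by 100 ng/mL tunicamycin added 4 h after compound (0.1% DMSO) to HeLa ATF6 reporter cells. After 18 h more, Renilla luciferase signal was read and expressed relative to DMSO control, n=5 biological replicates.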

NR3A2 (ERβ) = settings: cited from earlier work
[5] = known off-target outside the NR family at the recommended concentration; ref Supplementary Table 1 (superscript references); cited from earlier work
HEK293T cells [6] = experiment: Cytotoxicity: growth-rate (change in confluence over 24 h); settings: 1 µM, normalized to 0.1% DMSO control, single replicates (n=1...)
GSK3B = molecular target: T2, GSK3B (Homo sapiens, UniProt P49841); experiment: Liability panel screening by DSF: GSK3B; type: binding; settings: DSF, 20 µM, n=2; read-out: Mean ΔTM GSK3B
T2 construct: made in house

MAPK1 = molecular target: T3, MAPK1 (Homo sapiens, UniProt P28482); experiment: Liability panel screening by DSF: MAPK1; type: binding; settings: DSF, 20 µM, n=2; read-out: Mean ΔTM MAPK1
T3 construct: made in house
Outline: as §1

FGFR3 = molecular target: T4, FGFR3 (Homo sapiens, UniProt P22607); experiment: Liability panel screening by DSF: FGFR3; type: binding; settings: DSF, 20 µM, n=2; read-out: Mean ΔTM FGFR3
T4 construct: made in house
Outline: as §1

ABL1 = molecular target: T5, ABL1 (Homo sapiens, UniProt P00519); experiment: Liability panel screening by DSF: ABL1; type: binding; settings: DSF, 20 µM, n=2; read-out: Mean ΔTM ABL1
T5 construct: made in house
Outline: as §1

BRPF1 = molecular target: T6, BRPF1 (Homo sapiens, UniProt P55201); experiment: Liability panel screening by DSF: BRPF1; type: binding; settings: DSF, 20 µM, n=2; read-out: Mean ΔTM BRPF1
T6 construct: This panel comprised ten highly ligandable kinases and bromodomains; made in house
T6 sequence (P55201 628-732 limits assumed): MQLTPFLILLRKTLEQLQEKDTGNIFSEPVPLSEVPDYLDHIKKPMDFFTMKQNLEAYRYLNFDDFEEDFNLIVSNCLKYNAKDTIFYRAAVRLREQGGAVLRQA
Outline: as §1

NR3A1 (ERα) = settings: cited from earlier work
CSNK1D = molecular target: T7, CSNK1D (Homo sapiens, UniProt P48730); experiment: Liability panel screening by DSF: CSNK1D; type: binding; settings: DSF, 20 µM, n=2; read-out: Mean ΔTM CSNK1D
T7 construct: made in house
Outline: as §1

CDK2 = molecular target: T8, CDK2 (Homo sapiens, UniProt P24941); experiment: Liability panel screening by DSF: CDK2; type: binding; settings: DSF, 20 µM, n=2; read-out: Mean ΔTM CDK2
T8 construct: made in house
Outline: as §1

[7] = tested on: NF-κB activity in HEK293 NF-κB reporter cells; experiment: NF-kB activity assay (GFP reporter, ionomycin/PMA); type: cell-based; settings: for Mean NFκB response: n=3; for NF-κB activity (inflammatory response to ionomycin/PMA): HEK293 NF-κB reporter cells, compounds at recommended concentrations, imaged over 24 h, n = 3
Outline: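 Reporter readout: GFP-expressing cells normalized to confluence, imaged every 90 min across 24 h after ionomycin (100 ng/mL)/PMA (10 ng/mL) stimulation of HEK293 cells pre-treated 4 h with compound (0.1% DMSO); triplicate independent experiments.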

AURKA = molecular target: T9, AURKA (Homo sapiens, UniProt O14965); experiment: Liability panel screening by DSF: AURKA; type: binding; settings: DSF, 20 µM, n=2; read-out: Mean ΔTM AURKA
T9 construct: made in house
T9 sequence (O14965 1-403): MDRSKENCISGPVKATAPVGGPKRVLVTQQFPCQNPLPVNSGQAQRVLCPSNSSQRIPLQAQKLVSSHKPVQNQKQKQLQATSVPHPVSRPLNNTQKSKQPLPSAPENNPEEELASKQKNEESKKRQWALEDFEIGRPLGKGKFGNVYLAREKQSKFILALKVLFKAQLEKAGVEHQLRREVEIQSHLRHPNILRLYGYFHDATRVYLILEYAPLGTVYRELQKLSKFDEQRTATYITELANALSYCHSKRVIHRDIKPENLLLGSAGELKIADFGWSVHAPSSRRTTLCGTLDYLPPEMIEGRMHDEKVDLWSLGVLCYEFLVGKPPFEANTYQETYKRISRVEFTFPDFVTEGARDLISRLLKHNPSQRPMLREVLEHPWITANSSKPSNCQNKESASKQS
Outline: as §1

TRIM24 = molecular target: T10, TRIM24 (Homo sapiens, UniProt O15164); experiment: Liability panel screening by DSF: TRIM24; type: binding; settings: DSF, 20 µM, n=2; read-out: Mean ΔTM TRIM24
T10 construct: This panel comprised ten highly ligandable kinases and bromodomains; made in house
T10 sequence (O15164 899-1004 limits assumed): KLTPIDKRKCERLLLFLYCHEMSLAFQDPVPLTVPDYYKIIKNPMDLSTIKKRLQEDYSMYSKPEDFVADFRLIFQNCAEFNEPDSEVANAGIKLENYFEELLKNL
Outline: as §1

T5 sequence (P00519 whole entry, species assumed): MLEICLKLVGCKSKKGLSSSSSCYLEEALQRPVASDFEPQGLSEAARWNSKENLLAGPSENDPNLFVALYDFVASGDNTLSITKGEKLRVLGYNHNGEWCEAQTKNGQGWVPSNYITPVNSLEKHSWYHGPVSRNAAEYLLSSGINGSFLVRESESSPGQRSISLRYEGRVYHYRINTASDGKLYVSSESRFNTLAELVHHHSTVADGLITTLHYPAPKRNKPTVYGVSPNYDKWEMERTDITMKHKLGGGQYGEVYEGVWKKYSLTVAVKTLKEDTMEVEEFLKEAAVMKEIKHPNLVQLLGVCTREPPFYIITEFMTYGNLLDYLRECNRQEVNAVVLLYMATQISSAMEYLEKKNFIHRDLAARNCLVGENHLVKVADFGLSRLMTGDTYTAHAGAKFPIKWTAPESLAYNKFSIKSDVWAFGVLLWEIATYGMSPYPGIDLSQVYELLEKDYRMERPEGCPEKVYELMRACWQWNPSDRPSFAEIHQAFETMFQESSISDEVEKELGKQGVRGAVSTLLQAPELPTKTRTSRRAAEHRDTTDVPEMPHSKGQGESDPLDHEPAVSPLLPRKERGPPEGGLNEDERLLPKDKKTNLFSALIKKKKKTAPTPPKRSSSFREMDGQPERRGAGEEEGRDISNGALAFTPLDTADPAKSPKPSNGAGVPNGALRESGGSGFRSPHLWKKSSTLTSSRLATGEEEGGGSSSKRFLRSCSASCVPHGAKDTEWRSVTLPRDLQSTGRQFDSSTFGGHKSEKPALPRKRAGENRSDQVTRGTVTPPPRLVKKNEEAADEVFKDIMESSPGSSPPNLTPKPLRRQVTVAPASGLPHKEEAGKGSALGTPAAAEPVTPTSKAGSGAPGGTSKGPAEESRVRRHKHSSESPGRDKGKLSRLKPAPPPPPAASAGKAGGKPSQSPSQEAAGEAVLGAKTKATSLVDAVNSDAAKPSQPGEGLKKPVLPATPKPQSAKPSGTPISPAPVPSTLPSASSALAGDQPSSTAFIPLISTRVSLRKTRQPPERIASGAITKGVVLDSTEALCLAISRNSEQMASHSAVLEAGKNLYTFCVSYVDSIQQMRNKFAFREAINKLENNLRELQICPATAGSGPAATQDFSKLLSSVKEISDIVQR
T3 sequence (P28482 whole entry, species assumed): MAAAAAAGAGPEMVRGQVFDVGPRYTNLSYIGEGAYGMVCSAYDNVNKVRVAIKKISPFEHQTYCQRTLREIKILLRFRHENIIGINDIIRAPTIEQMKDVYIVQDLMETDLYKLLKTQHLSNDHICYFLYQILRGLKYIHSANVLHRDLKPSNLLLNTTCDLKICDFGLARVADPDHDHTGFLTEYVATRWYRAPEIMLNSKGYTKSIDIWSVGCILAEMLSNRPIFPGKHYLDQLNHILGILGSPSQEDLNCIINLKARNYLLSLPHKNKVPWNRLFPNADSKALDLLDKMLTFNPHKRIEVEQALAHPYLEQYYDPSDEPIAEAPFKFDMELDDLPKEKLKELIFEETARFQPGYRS
T7 sequence (P48730 whole entry, species assumed): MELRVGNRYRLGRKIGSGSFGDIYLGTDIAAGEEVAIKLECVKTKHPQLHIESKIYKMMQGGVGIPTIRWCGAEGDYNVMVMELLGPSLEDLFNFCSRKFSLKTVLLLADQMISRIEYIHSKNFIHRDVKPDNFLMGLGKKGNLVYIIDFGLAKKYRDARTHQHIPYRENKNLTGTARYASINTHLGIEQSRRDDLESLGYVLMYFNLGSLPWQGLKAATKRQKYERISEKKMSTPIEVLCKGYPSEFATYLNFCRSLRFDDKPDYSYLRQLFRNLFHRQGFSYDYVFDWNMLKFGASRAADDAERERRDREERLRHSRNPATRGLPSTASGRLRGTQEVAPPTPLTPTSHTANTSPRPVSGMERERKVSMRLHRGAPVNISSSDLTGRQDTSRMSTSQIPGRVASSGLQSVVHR
T2 sequence (P49841 whole entry, species assumed): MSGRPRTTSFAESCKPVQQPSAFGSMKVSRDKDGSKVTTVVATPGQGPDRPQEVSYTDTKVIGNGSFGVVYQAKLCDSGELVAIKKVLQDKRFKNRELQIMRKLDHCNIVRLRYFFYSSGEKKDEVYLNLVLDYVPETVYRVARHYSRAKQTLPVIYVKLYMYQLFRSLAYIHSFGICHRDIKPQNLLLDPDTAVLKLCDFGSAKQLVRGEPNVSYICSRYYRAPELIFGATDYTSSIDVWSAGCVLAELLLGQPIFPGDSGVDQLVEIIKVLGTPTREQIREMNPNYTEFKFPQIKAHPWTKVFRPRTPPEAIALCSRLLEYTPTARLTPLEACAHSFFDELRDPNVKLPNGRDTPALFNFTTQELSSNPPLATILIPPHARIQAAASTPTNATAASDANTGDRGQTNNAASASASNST
T4 sequence (P22607 23-806, species assumed): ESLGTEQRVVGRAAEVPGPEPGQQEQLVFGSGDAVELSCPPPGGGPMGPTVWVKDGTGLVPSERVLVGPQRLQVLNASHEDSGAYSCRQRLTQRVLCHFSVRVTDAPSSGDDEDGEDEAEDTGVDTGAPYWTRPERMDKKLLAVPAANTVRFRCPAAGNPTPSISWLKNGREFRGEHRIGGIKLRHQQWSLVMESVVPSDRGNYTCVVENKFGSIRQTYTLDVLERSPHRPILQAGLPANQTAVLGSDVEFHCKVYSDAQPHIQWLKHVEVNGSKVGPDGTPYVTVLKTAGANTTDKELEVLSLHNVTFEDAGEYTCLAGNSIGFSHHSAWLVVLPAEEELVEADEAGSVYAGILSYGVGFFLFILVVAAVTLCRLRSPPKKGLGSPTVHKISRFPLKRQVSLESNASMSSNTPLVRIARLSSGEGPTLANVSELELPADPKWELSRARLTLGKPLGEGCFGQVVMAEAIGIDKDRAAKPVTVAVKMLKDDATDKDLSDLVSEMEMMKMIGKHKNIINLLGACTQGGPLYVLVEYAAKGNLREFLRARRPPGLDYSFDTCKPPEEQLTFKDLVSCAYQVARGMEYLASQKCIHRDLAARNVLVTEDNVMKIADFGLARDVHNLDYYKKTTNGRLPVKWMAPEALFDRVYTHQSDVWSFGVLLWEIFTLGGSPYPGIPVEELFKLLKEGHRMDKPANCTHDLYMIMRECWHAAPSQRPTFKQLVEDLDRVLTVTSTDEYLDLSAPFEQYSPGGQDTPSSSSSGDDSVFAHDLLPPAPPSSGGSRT

Compound	ΔTm at 20 µM (BRD4) [°C]	Apoptosis induction [AI] (HEK293T cells [2])	Necrosis induction [NI] (HEK293T cells [3])	activity at 1 µM [4] [%]	ΔTm at 20 µM (GSK3B) [°C]	ΔTm at 20 µM (MAPK1) [°C]	ΔTm at 20 µM (FGFR3) [°C]	ΔTm at 20 µM (ABL1) [°C]	ΔTm at 20 µM (BRPF1) [°C]	ΔTm at 20 µM (CSNK1D) [°C]	ΔTm at 20 µM (CDK2) [°C]	Mean NFκB response ([7]; 1 µM, 1,5 h)	Mean NFκB response ([7]; 1 µM, 4,5 h)	Mean NFκB response ([7]; 1 µM, 7,5 h)	Mean NFκB response ([7]; 1 µM, 10,5 h)	Mean NFκB response ([7]; 1 µM, 13,5 h)	Mean NFκB response ([7]; 1 µM, 16,6 h)	Mean NFκB response ([7]; 1 µM, 19,5 h)	Mean NFκB response ([7]; 1 µM, 22,5 h)	Mean NFκB response ([7]; 1 µM, 3 h)	further results
C[C@]12CC[C@@H]3c4ccc(O)cc4C[C@@H](CCCCCCCCC[S+]([O-])CCCC(F)(F)C(F)(F)F)[C@H]3[C@@H]1CC[C@@H]2O (stereo partly shown) [Fulvestrant]	-2.93	0.62 (2×) and 0.98 and 0.59 and 0.64 and 0.41	0.62 and 0.70 and 0.56 and 0.98	89	0.72	-12	-3.24	-4.09	0	-4.77	0	2679.37 GFP+-cells/confluence ∙ 1000	3148.36 GFP+-cells/confluence ∙ 1000	4671.22 GFP+-cells/confluence ∙ 1000	6295.62 GFP+-cells/confluence ∙ 1000	7325.42 GFP+-cells/confluence ∙ 1000	8293.33 GFP+-cells/confluence ∙ 1000	8696.67 GFP+-cells/confluence ∙ 1000	9540.00 GFP+-cells/confluence ∙ 1000	2744.06 GFP+-cells/confluence ∙ 1000	Metabolic activity [MA] (HEK293T cells [1]): 0.95 (2×) and 1.00 and 1.04 and 1.03 and 0.99 and 1.20 (2×); IC50 (NR3A2 (ERβ); (lit.), ref Supplementary Table 1, read-out: Potency [nM] IC50, NR3A2 (ERβ)): 4 nM; rel. activity from literature, NR3A2 (ERβ): % rem. act. of estradiol (NR3A2 (ERβ); rem. act. of estradiol): 9%; Other off-target at recom. conc. [5]: sEH; Growth rate [GR] (HEK293T cells [6]): 0.67 and 2.29 and 0.97 and 0.95 and 0.64 and 0.78 and 0.76 and 0.84 and 1.55 and 3.07; rel. activity from literature, NR3A1 (ERα): % ERα remaining (NR3A1 (ERα); ERα remaining (degrader), ref Supplementary Table 1): 18%; Mean NFκB response ([7]; 1 µM, 6 h): 3642.03 GFP+-cells/confluence ∙ 1000; Mean NFκB response ([7]; 1 µM, 9 h): 5613.40 GFP+-cells/confluence ∙ 1000; Mean NFκB response ([7]; 1 µM, 12 h): 7011.92 GFP+-cells/confluence ∙ 1000; Mean NFκB response ([7]; 1 µM, 15 h): 8097.95 GFP+-cells/confluence ∙ 1000; Mean NFκB response ([7]; 1 µM, 18 h): 8436.67 GFP+-cells/confluence ∙ 1000; Mean NFκB response ([7]; 1 µM, 21 h): 9413.33 GFP+-cells/confluence ∙ 1000; Mean NFκB response ([7]; 1 µM, 24 h): 10080.00 GFP+-cells/confluence ∙ 1000; NF-κB activity (inflammatory response to ionomycin/PMA) [7]: reducing the inflammatory response; ΔTm at 20 µM (AURKA): -0.16 °C
Cc1c(-c2ccc(O)cc2)n(Cc2ccc(OCCN3CCCCCC3)cc2)c2ccc(O)cc12 [Bazedoxifene]	0.43	0.65 and 1.17 and 0.76 and 1.01 and 0.89 and 1.49	1.13 and 0.86 and 0.78 and 1.09	100	0.0162	0.08	-0.69	-0.21	-0.07	0.42	-0.64	2824.44 GFP+-cells/confluence ∙ 1000	3791.70 GFP+-cells/confluence ∙ 1000	7416.63 GFP+-cells/confluence ∙ 1000	14689.03 GFP+-cells/confluence ∙ 1000	19525.92 GFP+-cells/confluence ∙ 1000	23266.53 GFP+-cells/confluence ∙ 1000	26260.00 GFP+-cells/confluence ∙ 1000	28446.67 GFP+-cells/confluence ∙ 1000	3117.94 GFP+-cells/confluence ∙ 1000	EC50 (NR3A2 (ERβ); (lit.), ref Supplementary Table 1, read-out: Potency [nM] EC50, NR3A2 (ERβ)): 99 ± 53 nM; ΔTm at 20 µM (TRIM24): -2.05 °C; EC50 (NR3A1 (ERα); read-out: Potency [nM] EC50, NR3A1 (ERα)): 26 ± 14 nM; Mean NFκB response ([7]; 1 µM, 6 h): 5066.30 GFP+-cells/confluence ∙ 1000; Mean NFκB response ([7]; 1 µM, 9 h): 11293.98 GFP+-cells/confluence ∙ 1000; Mean NFκB response ([7]; 1 µM, 12 h): 17230.27 GFP+-cells/confluence ∙ 1000; Mean NFκB response ([7]; 1 µM, 15 h): 21680.82 GFP+-cells/confluence ∙ 1000; Mean NFκB response ([7]; 1 µM, 18 h): 24611.25 GFP+-cells/confluence ∙ 1000; Mean NFκB response ([7]; 1 µM, 21 h): 27073.33 GFP+-cells/confluence ∙ 1000; Mean NFκB response ([7]; 1 µM, 24 h): 29033.33 GFP+-cells/confluence ∙ 1000; NF-κB activity (inflammatory response to ionomycin/PMA) [7]: reducing the inflammatory response; ΔTm at 20 µM (AURKA): 0.09 °C

Reference: publication PMC11790914, “Chemogenomics for steroid hormone receptors (NR3)” (Communications Chemistry, 2025)
